Data: patent publication US20060167229A1, “Biologically active peptide conjugates” (priority 2002, published 2006)
Entries after “also recorded” stand apart in the source; their conditions may differ. Marks after values point to notes of the source that are not given here. Ends that are not written are not given here.

Tests used:
[1] = system: NK cell; test: NK cell cytotoxicity activity test (spleen cells of treated mice against YAC-1 target cells, MTT); assay type: in vivo, BALB/c mice; conditions: for NK cell cytotoxic activity, X ± SD (%): healthy mice; for effect on the cytotoxic activity of NK cells (summary): statistically significant difference from saline in any of the dosage groups 0.5-500 μg/kg/day
Outline: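 YAC-1 target cells (1×10^5/ml) mixed with splenocytes (4×10^6/ml) from mice given test substances i.p. daily for 15 days (10 mice/group). Effector-only and target-only wells served as controls. MTT added at 1 mg/ml for 4 h at 37 °C; absorbance read at 570/630 nm.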

[2] = system: interferon (IFN); parameters: species or system BALB/c mice; conditions: mouse, in vivo; for activity of T lymphocyte in secreting IFN, X ± SD (IU): ip
[3] = system: anti-SRBC antibody; test: Sheep Red Blood Cell (SRBC) hemolysis test, antibody formation; assay type: in vivo, BALB/c mice; conditions: for anti-SRBC antibody formation, X ± SD (Unit): healthy mice, SRBC day 12 (IFN-γ, IL-2 3×10^5 IU/kg/day), saline 32 ± 7; for effect on the synthesis of anti-SRBC antibody upon the antigenic challenge (summary): statistically significant difference from saline in any of the dosage groups 0.5-500 μg/kg/day
Outline: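 Antibody formation was read as haemolysis: 500-fold diluted serum, collected on day 16 after intraperitoneal SRBC (0.2 ml, day 12), was mixed with 2% SRBC plus complement for 10 min at 37° C. Supernatant haemoglobin measured with Drabkin reagent at OD540, indexed against a reference SRBC lysate ×500.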

[4] = system: mononuclear phagocyte; test: Carbon particle clearance test, phagocytosis function; assay type: in vivo, BALB/c mice; parameters: key to X ± SD (phagocytotic index): α = cube root of K × (body weight ÷ liver+spleen weight); conditions: for X ± SD (phagocytotic index): healthy mice, saline 5.1 ± 0.6; for effect on the phagocytotic activity of mononuclear phagocyte (summary): statistically significant difference from saline in any of the dosage groups 0.5-500 μg/kg/day
Outline: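 Clearance index K came from OD680 of blood sampled 1 and 5 min after tail-vein India ink ([…], diluted 5×), given on day 16. Phagocytic index α combined K with liver, spleen […] weights taken the same day.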

[5] = system: thymus gland; test: Immunity organ weight test, thymus gland index; assay type: in vivo, BALB/c mice; conditions: for weight of thymus gland (thymus gland index), X ± SD (%): healthy mice, saline 0.12 ± 0.02; for effect on the weight of the thymus gland (summary): statistically significant difference from saline in any of the dosage groups 0.5-500 μg/kg/day
Description: One day after the last test substance administration (day 16), the liver, spleen, and thymus gland were separated and blotted dry with filter paper and weighed. The phagocytosis index α was calculated as below: α=(^3√{square root over ( )}K)(W÷WLS)
Thymus gland index (%)=(thymus weight/body weight)×100%

[6] = peptide 50 μg/kg/day i.p. 15 days (IFN-γ, IL-2 3×10^5 IU/kg/day), saline 56 ± 8
[7] = peptide 0.5 μg/kg/day i.p. 15 days
[8] = peptide 5 μg/kg/day i.p. 15 days
[9] = peptide 50 μg/kg/day i.p. 15 days
[10] = peptide 500 μg/kg/day i.p. 15 days
[11] = peptide 5 μg/kg/day i.p. 15 days (IFN-γ, IL-2 3×10^5 IU/kg/day)
[12] = peptide 500 μg/kg/day i.p. 15 days (IFN-γ, IL-2 3×10^5 IU/kg/day)
[13] = peptide 50 μg/kg/day i.p. 15 days (IFN-γ, IL-2 3×10^5 IU/kg/day)
[14] = peptide 5 μg/kg/day i.p. 15 days (IFN-γ, IL-2 3×10^5 IU/kg/day), saline 60 ± 9
[15] = peptide 0.5 μg/kg/day i.p. 15 days (IFN-γ, IL-2 3×10^5 IU/kg/day)
[16] = peptide 500 μg/kg/day i.p. 15 days (IFN-γ, IL-2 3×10^5 IU/kg/day), saline 63 ± 9
[17] = peptide 0.5 μg/kg/day i.p. 15 days (IFN-γ, IL-2 3×10^5 IU/kg/day), saline 58 ± 7

Substance | NK cell cytotoxic activity, X ± SD (%) [1, 6] | effect on the cytotoxic activity of NK cells (summary) [1] | anti-SRBC antibody formation, X ± SD (Unit) [3, 7] | anti-SRBC antibody formation, X ± SD (Unit) [3, 8] | anti-SRBC antibody formation, X ± SD (Unit) [3, 9] | anti-SRBC antibody formation, X ± SD (Unit) [3, 10] | X ± SD (phagocytotic index) [4, 11] | X ± SD (phagocytotic index) [4, 12] | effect on the phagocytotic activity of mononuclear phagocyte (summary) [4] | weight of thymus gland (thymus gland index), X ± SD (%) [5, 11] | weight of thymus gland (thymus gland index), X ± SD (%) [5, 13] | weight of thymus gland (thymus gland index), X ± SD (%) [5, 12] | effect on the weight of the thymus gland (summary) [5] | effect on the synthesis of anti-SRBC antibody upon the antigenic challenge (summary) [3] | NK cell cytotoxic activity, X ± SD (%) [1, 14] | weight of thymus gland (thymus gland index), X ± SD (%) [5, 15] | NK cell cytotoxic activity, X ± SD (%) [1, 16] | further results
FNFVPP [CMS003] | 85 ± 6 % | increase | 2 ± 1 Unit | 91 ± 24*^@ Unit | 52 ± 11 Unit | 96 ± 18*^@ Unit | 6.9 ± 0.9*^ | 6.6 ± 0.7 | enhance | – | – | – | – | – | – | – | – | effect on the secretion of IFN by T lymphocytes (summary) [2]: enhance; activity of T lymphocyte in secreting IFN, X ± SD (IU) [2]: 106 ± 16 IU
VGMGQKDSY | – | – | 12 ± 3 Unit | 118 ± 20*^@^ Unit | – | 91 ± 26*^@ Unit | 6.8 ± 0.6*^ | – | enhance | 0.24 ± 0.02*^@^ % | 0.20 ± 0.03*^@^ % | 0.19 ± 0.02 % | increase | – | – | – | – | X ± SD (phagocytotic index) [4, 13]: 6.7 ± 0.9*^
Pro Ser Ile Vat Gly Arg Pro Arg His Gln Gly Val Met (PSIVGRPRHQGVM; listed as Sus scrofa) [CMS015] | 78 ± 8 % | increase | 13 ± 4 Unit | 94 ± 37*^@ Unit | 54 ± 9*^@ Unit | 136 ± 22*^@^ Unit | – | – | – | 0.20 ± 0.08 % | – | – | increase | enhance; also recorded: inhibit | – | – | – | –
VGMGQKDSYV [CMS020] | – | increase | 10 ± 3 Unit | 89 ± 24*^@ Unit | – | 155 ± 35*^@^ Unit | – | 6.4 ± 0.6 | enhance | 0.24 ± 0.07*^@^ % | 0.27 ± 0.03*^@^ % | 0.19 ± 0.04 % | increase | – | 91 ± 6 % | 0.23 ± 0.05*^@^ % | – | –
Phe Gln Gln Gln (FQQQ; printed: Phe Gln Gln Gln) [CMS032] | – | increase | – | 157 ± 37*^@^ Unit | 131 ± 24*^@^ Unit | – | – | – | – | 0.29 ± 0.04*^@^ % | 0.27 ± 0.03*^@^ % | 0.25 ± 0.03*^@^ % | increase | enhance | – | 0.21 ± 0.06 % | 87 ± 5 % | –
Tyr Ser Leu (YSL; listed as Sus scrofa) [CMS024] | – | increase | 98 ± 6*^@^ Unit | 171 ± 39*^@^ Unit | – | 75 ± 29*^@ Unit | – | 6.4 ± 1.0 | enhance | 0.23 ± 0.06*^ % | 0.27 ± 0.02*^@^ % | – | increase | enhance | 78 ± 3 % | – | 89 ± 8 % | X ± SD (phagocytotic index) [4, 15]: 6.7 ± 0.5*^; X ± SD (phagocytotic index) [4, 13]: 6.6 ± 0.7
LGMQACGIHETTY [CMS012] | 40 ± 9 % | – | – | 81 ± 22*^@ Unit | 50 ± 14 Unit | 141 ± 21*^@^ Unit | – | – | – | 0.27 ± 0.06*^@^ % | 0.26 ± 0.02*^@^ % | – | increase | enhance | 85 ± 7 % | 0.22 ± 0.06*^ % | – | NK cell cytotoxic activity, X ± SD (%) [1, 17]: 77 ± 6 %; effect on the secretion of IFN by T lymphocytes (summary) [2]: enhance; activity of T lymphocyte in secreting IFN, X ± SD (IU) [2]: 86 ± 9 IU
Phe Val Asn Asp (FVND; listed as Sus scrofa) [CMS035] | 72 ± 9 % | increase | – | 176 ± 39*^@^ Unit | 97 ± 10*^@^ Unit | 88 ± 16*^@ Unit | 6.9 ± 0.9*^ | – | enhance | 0.21 ± 0.04 % | – | 0.21 ± 0.03*^@^ % | increase | enhance | – | – | 90 ± 10 % | NK cell cytotoxic activity, X ± SD (%) [1, 17]: 76 ± 10 %
KAVGHLDDLPGAL [CMS008] | – | – | – | 97 ± 26*^@ Unit | – | 82 ± 15*^@ Unit | 6.4 ± 0.5 | 6.5 ± 1.2 | enhance | – | 0.20 ± 0.04*^@^ % | 0.21 ± 0.03*^@^ % | increase | enhance | 92 ± 4*^@^ % | 0.22 ± 0.07*^ % | – | NK cell cytotoxic activity, X ± SD (%) [1, 17]: 46 ± 12 %
Pro Gln Asn Phe (PQNF; printed: Pro Gln Asn Phe) [CMS034] | – | increase | 20 ± 2 Unit | 172 ± 37*^@^ Unit | 136 ± 11*^@^ Unit | – | – | – | – | 0.27 ± 0.06*^@^ % | 0.19 ± 0.04*^ % | 0.20 ± 0.05*^ % | increase | enhance; also recorded: inhibit | 90 ± 5 % | – | 85 ± 9 % | –
PTTKTYFPHF [CMS001] | 85 ± 10 % | increase | – | 110 ± 24*^@ Unit | – | – | – | – | – | 0.22 ± 0.05 % | – | – | increase | enhance | – | – | – | effect on the secretion of IFN by T lymphocytes (summary) [2]: enhance; activity of T lymphocyte in secreting IFN, X ± SD (IU) [2]: 110 ± 15 IU
